Test results from patent US20240294488A1, “ISOTOPOLOGES, SALTS, CRYSTALLINE FORMS, STEREOISOMERS, OF METHYLONE AND ETHYLONE AND METHODS OF USE THEREOF” (Terran Biosciences Inc., priority 2021, published 2024).
Structures can show the parent of a compound that is named as a salt.

How the values were obtained:
[1] = Solubility screen of methylone hydrochloride in solvents; assay type: physicochemical; settings: thermodynamic from solid, visual
Protocol: The experiments were carried out by adding the test solvent in aliquots to weighed portions of solid. Whether dissolution had occurred was judged by visual inspection after addition of each solvent aliquot. Solubility numbers recorded in Table 4 were calculated by dividing the weight of the sample by the total amount of solvent used to dissolve the sample. The actual solubilities may be greater than the numbers calculated because of the use of solvent aliquots that were too large or because of slow dissolution rates. All solubility measurements were carried out at room temperature unless noted otherwise.

[2] = Dynamic vapor sorption (DVS); assay type: physicochemical
Protocol: The sample for moisture analysis was allowed to dry at 25° C. for up to 4 hours under a stream of dry nitrogen. The relative humidity is then increased stepwise from 10 to 90% relative humidity (adsorption scan) allowing the sample to equilibrate for a maximum of four hours before weighing and moving on to the next step. The desorption scan is measured from 85 to 0% relative humidity with the same equilibration time. The sample is then dried under a stream of dry nitrogen at 80° C. for 2 hours or until no weight loss is observed.
DVS analysis was carried out using a TA Instruments Q5000 Dynamic Vapor Sorption analyzer. The instrument was calibrated with standard weights and a sodium bromide standard for humidity. Approximately 10-25 mg of sample was loaded into a metal-coated quartz pan for analysis. The sample was analyzed at 25° C. with a maximum equilibration time of one hour in 10% relative humidity (RH) steps from 5 to 95% RH (adsorption cycle) and from 95 to 5% RH (desorption cycle). The movement from one step to the next occurred either after satisfying the equilibrium criterion of 0.01% weight change or, if the equilibrium criterion was not met, after one hour. The percent weight change values were calculated.

[3] = Plasma and brain concentration at end of zero maze study; assay type: in vivo, rat; settings: end of zero maze study, 5, 15, 30 mg/kg ip, FIG. 68 and FIG. 69
Protocol: Terminal sampling. At the end of the study, terminal blood was collected from 2 of the vehicle treated rats (>5 mL) and from all methylone HCl treated rats (500 uL) by CP under CO2. Blood samples were placed into Eppendorf tubes on ice containing 22 μL/mL blood (vehicle treated) or 11 μL EDTA (93 mg/mL) (Methylone HCl treated rats) and gently mixed. After no longer than 30 min, blood samples were centrifuged at 10,000 rpm×3 min and plasma samples (>2 mL (vehicle) or 2×100 μL (Methylone HCl treated) placed into Eppendorf tubes (Vehicle) or 96 well plates on dry ice. Immediately after blood sampling, brains were excised, rinsed in saline, blotted, weighed and snap-frozen in liquid N2. All samples were stored at −20° C. until dispatched on dry ice for analysis.
Terminal sampling. At the end of the study, terminal blood was collected from 2 of the vehicle treated rats (>5 mL) and from all S-methylone HCl treated rats (500 uL) by CP under CO2. Blood samples were placed into Eppendorf tubes on ice containing 22 μL/mL blood (vehicle treated) or 11 μL EDTA (93 mg/mL) (S-methylone HCl treated rats) and gently mixed. […]

SMILES: CNC(C)C(=O)c1ccc2c(c1)OCO2 (racemic) [(rac)-Methylone Hydrochloride, 3,4-methylenedioxy-N-methylcathinone hydrochloride]
- solubility ([1]; acetonitrile, organic solvent or mixture, ACN, room temperature): < 1 mg/mL
- solubility ([1]; chloroform, organic solvent or mixture, CHCl3, room temperature): < 1 mg/mL
- solubility ([1]; ethanol, organic solvent or mixture, EtOH, room temperature): 8 mg/mL
- solubility ([1]; ethyl acetate (wet), organic solvent or mixture, EtOAc (wet), room temperature): 9 mg/mL
- solubility ([1]; methanol, organic solvent or mixture, MeOH, room temperature): 48 mg/mL
- solubility ([1]; methanol/chloroform 50/50, organic solvent or mixture, MeOH/CHCl3 50/50, room temperature): 45 mg/mL
- solubility ([1]; organic solvent or mixture, Acetone, room temperature): < 1 mg/mL
- solubility ([1]; organic solvent or mixture, DMF, room temperature): 5 mg/mL
- solubility ([1]; organic solvent or mixture, THF, room temperature): < 1 mg/mL
- solubility ([1]; water, H2O, room temperature): 47 mg/mL
- relative humidity above which water uptake occurs ([2]; DVS, FIG. 26): above 75 % RH
- physical stability after moisture sorption-desorption analysis ([2]; between 5% RH and 95% RH): physically stable
- water gain ([2]; between 5% RH and 95% RH): 0.33%
- water loss ([2]; between 95% RH and 5% RH): 0.15%
- appearance after humidity exposure ([2]; exposed to 75% RH for 2 hours): became tacky and stuck to the vial
- concentration in plasma and brain [3]: increased in both brain and plasma at the higher doses
